Measurements reported in BindingDB's records for doi:10.1021/jm0700924 (Astex Therapeutics, 2007).
pIC50: −log10 of the molar value.

Tests used:
[1] = molecular target: cAMP-dependent protein kinase catalytic subunit alpha (Bos taurus, UniProt P00517); test: PKA In Vitro Enzyme Assay; details: pH 7.2; 22 °C
[2] = molecular target: RAC-beta serine/threonine-protein kinase (Homo sapiens, UniProt P31751); test: PKB In Vitro Enzyme Assay; details: pH 7.2; 22 °C
Sequence of RAC-beta serine/threonine-protein kinase (P31751 whole entry): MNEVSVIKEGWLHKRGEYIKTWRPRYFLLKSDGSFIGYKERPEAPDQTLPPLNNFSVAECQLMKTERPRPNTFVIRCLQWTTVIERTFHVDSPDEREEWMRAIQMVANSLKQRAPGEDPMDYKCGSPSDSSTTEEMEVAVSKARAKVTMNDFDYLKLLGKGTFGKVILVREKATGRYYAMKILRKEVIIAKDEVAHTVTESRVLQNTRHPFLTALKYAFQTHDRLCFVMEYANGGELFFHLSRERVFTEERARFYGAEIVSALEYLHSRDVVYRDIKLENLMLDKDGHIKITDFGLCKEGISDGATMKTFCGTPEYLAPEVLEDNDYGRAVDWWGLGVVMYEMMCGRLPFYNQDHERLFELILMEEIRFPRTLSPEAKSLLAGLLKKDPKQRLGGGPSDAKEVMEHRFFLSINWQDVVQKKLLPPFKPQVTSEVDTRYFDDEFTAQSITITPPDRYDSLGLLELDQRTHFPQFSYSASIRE

pIC50 [1]: 7.82 | pIC50 [2]: 8.00
SMILES: CNCC(c1ccc(Cl)cc1)c1ccc(-c2ncnc3nc[nH]c23)cc1 (configuration not stated) [[2-(4-chlorophenyl)-2-[4-(9H-purin-6-yl)phenyl]ethyl](methyl)amine]
